According to patent US12544391B2, “CD73 inhibitors” (ORIC Pharmaceuticals, Inc., priority 2019, dated 2026):
pIC50: −log10 of the molar value.

Target: T1, CD73 (Homo sapiens, UniProt P21589)
T1 sequence (P21589 27-549): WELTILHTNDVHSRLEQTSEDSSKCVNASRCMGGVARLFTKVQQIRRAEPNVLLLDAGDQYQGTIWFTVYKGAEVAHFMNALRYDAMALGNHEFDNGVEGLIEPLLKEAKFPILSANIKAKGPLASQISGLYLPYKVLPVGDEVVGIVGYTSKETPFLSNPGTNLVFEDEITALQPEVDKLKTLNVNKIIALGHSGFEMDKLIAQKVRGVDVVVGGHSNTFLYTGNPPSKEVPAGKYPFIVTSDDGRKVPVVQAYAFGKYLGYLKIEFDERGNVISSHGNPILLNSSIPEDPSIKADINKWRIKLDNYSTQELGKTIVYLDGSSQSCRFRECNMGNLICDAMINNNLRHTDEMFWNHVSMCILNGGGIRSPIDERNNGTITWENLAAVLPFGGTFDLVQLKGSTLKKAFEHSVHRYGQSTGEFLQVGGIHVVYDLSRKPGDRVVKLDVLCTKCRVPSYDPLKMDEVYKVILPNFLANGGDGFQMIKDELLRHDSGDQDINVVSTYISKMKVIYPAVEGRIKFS
Assay: CD73 biochemical assay, Malachite Green detection of AMP hydrolysis
Settings: CD73 320 pM, AMP 15 μM, Malachite Green readout
Procedure: Assay Reaction Conditions
• Assay Volume: 70 μl • Reaction Volume: 50 μl • CD73: 0.3208 nM • AMP: 15 μM • Assay Buffer: 2 5 mM Tris-HCL, pH 7.4, 0.01% Brij-35, 0.01% BSA, 5 mM MgCl2 Assay Procedure:
A clear 384 well plate was used in this assay.
Made dose titration of testing compounds in assay buffer, 10 points ½ log titrations in duplicates starting at 100 μM. Total volume for each well was 25 μl, with CD73 then added to each well for a final concentration of 320 pM. The solution was then incubated at RT for 15 min. 25 μl of AMP was added to each well for a final concentration of 15 μM, and then incubated at rt for 10 min. 10 μl of Malachite Green Reagent A was then added and allowed to incubate at rt for 10 min. 10 μl of Malachite Green Reagent B was then added and allowed to incubate at rt for 45 min. The absorbance for each sample was read on an Envision plate reader using excitation filter: Cy5 […].
The ability of the compounds disclosed herein to inhibit CD73 activity was quantified and the respective IC50 values were determined. Table 2 provides the biochemical IC50 values of compounds disclosed herein.

| pIC50 | Structure (SMILES) |
| --- | --- |
| 6.00 to 7.00 | C[C@@]1(c2ccc3c(NC4CCCC4)nc(Cl)nn23)O[C@H](CO[C@](CO)(COCc2nn[nH]n2)P(=O)(O)O)[C@@H](O)[C@H]1O [Example 37, ((S)-1-((2H-tetrazol-5-yl)methoxy)-2-(((2R,3S,4R,5S)-5-(2-chloro-4-(cyclopentylamino)pyrrolo[2,1-f][1,2,4]triazin-7-yl)-3,4-dihydroxy-5-methyltetrahydrofuran-2-yl)methoxy)-3-hydroxypropan-2-yl)phosphonic acid] |
| ≥ 9.30 | COC[C@](CC(=O)O)(OC[C@H]1O[C@@H](c2ccc3c(NC4CCCC4)nc(Cl)nn23)[C@H](O)[C@@H]1O)P(=O)(O)O [Example 45, (R)-3-(((2R,3S,4R,5S)-5-(2-Chloro-4-(Cyclopentylamino)pyrrolo[2,1-f][1,2,4]triazin-7-yl)-3,4-dihydroxytetrahydrofuran-2-yl)methoxy)-4-methoxy-3-phosphonobutanoic acid] |
| ≥ 9.30 | O=P(O)(O)[C@@](CO)(COCc1nn[nH]n1)OC[C@H]1O[C@@H](c2ccc3c(NCC4CCCC4)nc(Cl)nn23)[C@H](O)[C@@H]1O [Example 46, ((S)-1-((2H-tetrazol-5-yl)methoxy)-2-(((2R,3S,4R,5S)-5-(2-chloro-4-((cyclopentylmethyl)amino)pyrrolo[2,1-f][1,2,4]triazin-7-yl)-3,4-dihydroxytetrahydrofuran-2-yl)methoxy)-3-hydroxypropan-2-yl)phosphonic acid] |
| 9.00 to 9.30 | O=P(O)(O)[C@](CO)(COCc1nn[nH]n1)OC[C@H]1O[C@@H](c2ccc3c(NC4CCC4)nc(Cl)nn23)[C@H](O)[C@@H]1O [Example 50, ((R)-1-((2H-tetrazol-5-yl)methoxy)-2-(((2R,3S,4R,5S)-5-(2-chloro-4-(cyclobutylamino)pyrrolo[2,1-f][1,2,4]triazin-7-yl)-3,4-dihydroxytetrahydrofuran-2-yl)methoxy)-3-hydroxypropan-2-yl)phosphonic acid] |
| 7.00 to 9.00 | O=P(O)(O)[C@](CO)(COCc1nn[nH]n1)OC[C@H]1O[C@@H](c2ccc3c(NCC4CC4)nc(Cl)nn23)[C@H](O)[C@@H]1O [Example 54, ((R)-1-((2H-tetrazol-5-yl)methoxy)-2-(((2R,3S,4R,5S)-5-(2-chloro-4-((cyclopropylmethyl)amino)pyrrolo[2,1-f][1,2,4]triazin-7-yl)-3,4-dihydroxytetrahydrofuran-2-yl)methoxy)-3-hydroxypropan-2-yl)phosphonic acid] |
| 6.00 to 7.00 | C[C@@]1(c2ccc3c(NC4CCCC4)nc(Cl)nn23)O[C@H](CO[C@@](CO)(COCc2nn[nH]n2)P(=O)(O)O)[C@@H](O)[C@H]1O [Example 36, ((R)-1-((2H-tetrazol-5-yl)methoxy)-2-(((2R,3S,4R,5S)-5-(2-chloro-4-(cyclopentylamino)pyrrolo[2,1-f][1,2,4]triazin-7-yl)-3,4-dihydroxy-5-methyltetrahydrofuran-2-yl)methoxy)-3-hydroxypropan-2-yl)phosphonic acid] |
| 7.00 to 9.00 | O=P(O)(O)C(CO)(COCc1nnn[nH]1)OC[C@H]1O[C@H](c2cnn3c(NC4CCCC4)cc(Cl)nc23)[C@H](O)[C@@H]1O (stereo partly drawn) [Example 43, (1-((1H-tetrazol-5-yl)methoxy)-2-(((2R,3S,4R,5R)-5-(5-chloro-7-(cyclopentylamino)pyrazolo[1,5-a]pyrimidin-3-yl)-3,4-dihydroxytetrahydrofuran-2-yl)methoxy)-3-hydroxypropan-2-yl)phosphonic acid] |

Further lines, the compound ahead of its results:

| Structure (SMILES) | pIC50 |
| --- | --- |
| O=P(O)(O)[C@](CO)(COCc1nn[nH]n1)OC[C@H]1O[C@@H](c2ccc3c(NC4CCCC4)nc(Cl)nn23)[C@H](O)[C@@H]1O [Example 16, ((R)-1-((2H-tetrazol-5-yl)methoxy)-2-(((2R,3S,4R,5S)-5-(2-chloro-4-(cyclopentylamino)pyrrolo[2,1-f][1,2,4]triazin-7-yl)-3,4-dihydroxytetrahydrofuran-2-yl)methoxy)-3-hydroxypropan-2-yl)phosphonic acid] | 9.00 to 9.30 |
| COCC(OC[C@H]1O[C@@H](c2ccc3c(NC4CCCC4)nc(Cl)nn23)[C@H](O)[C@@H]1O)(C(=O)O)P(=O)(O)O (stereo partly drawn) [Example 8, 2-(((2R,3S,4R,5S)-5-(2-Chloro-4-(cyclopentylamino)pyrrolo[2,1-f][1,2,4]triazin-7-yl)-3,4-dihydroxytetrahydrofuran-2-yl)methoxy)-3-methoxy-2-phosphonopropanoic acid] | 9.00 to 9.30 |
| COC[C@@](COCc1nn[nH]n1)(OC[C@H]1O[C@@H](c2ccc3c(NC4CCCC4)nc(Cl)nn23)[C@H](O)[C@@H]1O)P(=O)(O)O [Example 10, ((R)-1-((2H-tetrazol-5-yl)methoxy)-2-(((2R,3S,4R,5S)-5-(2-chloro-4-(cyclopentylamino)pyrrolo[2,1-f][1,2,4]triazin-7-yl)-3,4-dihydroxytetrahydrofuran-2-yl)methoxy)-3-methoxypropan-2-yl)phosphonic acid] | 7.00 to 9.00 |
| O=P(O)(O)C(CO)OC[C@H]1O[C@@H](c2ccc3c(NC4CCCC4)nc(Cl)nn23)[C@H](O)[C@@H]1O (stereo partly drawn) [Example 13, (1-(((2R,3S,4R,5S)-5-(2-chloro-4-(cyclopentylamino)pyrrolo[2,1-f][1,2,4]triazin-7-yl)-3,4-dihydroxytetrahydrofuran-2-yl)methoxy)-2-hydroxyethyl)phosphonic acid] | 7.00 to 9.00 |
| COCC(C)(OC[C@H]1O[C@@H](c2ccc3c(NC4CCCC4)nc(Cl)nn23)[C@H](O)[C@@H]1O)P(=O)(O)O (stereo partly drawn) [Example 22, (2-(((2R,3S,4R,5S)-5-(2-chloro-4-(cyclopentylamino)pyrrolo[2,1-f][1,2,4]triazin-7-yl)-3,4-dihydroxytetrahydrofuran-2-yl)methoxy)-1-methoxypropan-2-yl)phosphonic acid] | ≥ 9.30 |
| CCOC(=O)COC[C@@](COC)(OC[C@H]1O[C@@H](c2ccc3c(NC4CCCC4)nc(Cl)nn23)[C@H](O)[C@@H]1O)P(=O)(O)O [Example 26, ((S)-2-(((2R,3S,4R,5S)-5-(2-chloro-4-(cyclopentylamino)pyrrolo[2,1-f][1,2,4]triazin-7-yl)-3,4-dihydroxytetrahydrofuran-2-yl)methoxy)-1-(2-ethoxy-2-oxoethoxy)-3-methoxypropan-2-yl)phosphonic acid] | ≥ 9.30 |
| C[C@@]1(c2ccc3c(NC4CCCC4)nc(Cl)nn23)O[C@H](COC(CO)(COCc2nnn[nH]2)P(=O)(O)O)[C@@H](O)[C@H]1O (stereo partly drawn) [Example 29, (1-((1H-tetrazol-5-yl)methoxy)-2-(((2R,3S,4R,5S)-5-(2-chloro-4-(cyclopentylamino)pyrrolo[2,1-f][1,2,4]triazin-7-yl)-3,4-dihydroxy-5-methyltetrahydrofuran-2-yl)methoxy)-3-hydroxypropan-2-yl)phosphonic acid] | 6.00 to 7.00 |
| COC[C@@](C)(OC[C@H]1O[C@@H](c2ccc3c(NC4CCCC4)nc(Cl)nn23)[C@H](O)[C@@H]1O)P(=O)(O)O [Example 31, ((S)-2-(((2R,3S,4R,5S)-5-(2-chloro-4-(cyclopentylamino)pyrrolo[2,1-f][1,2,4]triazin-7-yl)-3,4-dihydroxytetrahydrofuran-2-yl)methoxy)-1-methoxypropan-2-yl)phosphonic acid] | 7.00 to 9.00 |
| O=P(O)(O)C(CO)(Cc1nn[nH]n1)OC[C@H]1O[C@@H](c2ccc3c(NC4CCCC4)nc(CO)nn23)[C@H](O)[C@@H]1O (stereo partly shown) [Example 21] | 9.00 to 9.30 |
| COC[C@@](CO)(OC[C@H]1O[C@@H](c2ccc3c(NC4CCCC4)nc(Cl)nn23)[C@H](O)[C@@H]1O)P(=O)(O)O [Example 7, ((S)-2-(((2R,3S,4R,5S)-5-(2-chloro-4-(cyclopentylamino)pyrrolo[2,1-f][1,2,4]triazin-7-yl)-3,4-dihydroxytetrahydrofuran-2-yl)methoxy)-1-hydroxy-3-methoxypropan-2-yl)phosphonic acid] | 7.00 to 9.00 |
| O=P(O)(O)C(CO)(CO)OC[C@H]1O[C@@H](c2ccc3c(NC4CCCC4)nc(Cl)nn23)[C@H](O)[C@@H]1O [Example 11, (2-(((2R,3S,4R,5S)-5-(2-chloro-4-(cyclopentylamino)pyrrolo[2,1-f][1,2,4]triazin-7-yl)-3,4-dihydroxytetrahydrofuran-2-yl)methoxy)-1,3-dihydroxypropan-2-yl)phosphonic acid] | 9.00 to 9.30 |
| O=P(O)(O)[C@](CO)(Cc1nn[nH]n1)OC[C@H]1O[C@@H](c2ccc3c(NC4CCCC4)nc(Cl)nn23)[C@H](O)[C@@H]1O [Example 2, ((S)-2-(((2R,3S,4R,5S)-5-(2-Chloro-4-(cyclopentylamino)pyrrolo[2,1-f][1,2,4]triazin-7-yl)-3,4-dihydroxytetrahydrofuran-2-yl)methoxy)-1-hydroxy-3-(2H-tetrazol-5-yl)propan-2-yl)phosphonic acid] | 7.00 to 9.00 |
